Assay results reported in patent US12180194B2, “Multi-aziridine compound” (Covestro (Netherlands) B.V., priority 2018, dated 2024).

Legend:
Bscl2-GFP = experiment: ToxTracker genotoxicity assay, Bscl2-GFP reporter induction; conditions: for Genotoxicity test, With S9 rat liver extract, Bscl 2, 10 / Genotoxicity test, Without S9 rat liver extract, Bscl 2, 10: GFP induction vs vehicle at 10% cytotoxicity; for Genotoxicity test, With S9 rat liver extract, Bscl 2, 10 / Genotoxicity test, With S9 rat liver extract, Bscl 2, 25 / Genotoxicity test, With S9 rat liver extract, Bscl 2, 50: 3 h exposure with S9, 24 h recovery; for Genotoxicity test, Without S9 rat liver extract, Bscl 2, 10 / Genotoxicity test, Without S9 rat liver extract, Bscl 2, 25 / Genotoxicity test, Without S9 rat liver extract, Bscl 2, 50: 24 h exposure, no S9; for Genotoxicity test, With S9 rat liver extract, Bscl 2, 25 / Genotoxicity test, Without S9 rat liver extract, Bscl 2, 25: GFP induction vs vehicle at 25% cytotoxicity; for Genotoxicity test, With S9 rat liver extract, Bscl 2, 50 / Genotoxicity test, Without S9 rat liver extract, Bscl 2, 50: GFP induction vs vehicle at 50% cytotoxicity; for Genotoxicity test, Bscl 2 induction level: fold induction
Rtkn-GFP = experiment: ToxTracker genotoxicity assay, Rtkn-GFP reporter induction; conditions: for Genotoxicity test, With S9 rat liver extract, Rtkn, 10 / Genotoxicity test, Without S9 rat liver extract, Rtkn, 10: GFP induction vs vehicle at 10% cytotoxicity; for Genotoxicity test, With S9 rat liver extract, Rtkn, 10 / Genotoxicity test, With S9 rat liver extract, Rtkn, 25 / Genotoxicity test, With S9 rat liver extract, Rtkn, 50: 3 h exposure with S9, 24 h recovery; for Genotoxicity test, Without S9 rat liver extract, Rtkn, 10 / Genotoxicity test, Without S9 rat liver extract, Rtkn, 25 / Genotoxicity test, Without S9 rat liver extract, Rtkn, 50: 24 h exposure, no S9; for Genotoxicity test, With S9 rat liver extract, Rtkn, 25 / Genotoxicity test, Without S9 rat liver extract, Rtkn, 25: GFP induction vs vehicle at 25% cytotoxicity; for Genotoxicity test, With S9 rat liver extract, Rtkn, 50 / Genotoxicity test, Without S9 rat liver extract, Rtkn, 50: GFP induction vs vehicle at 50% cytotoxicity; for Genotoxicity test, Rtkn induction level: fold induction
[1] = with S9 rat liver extract, concentration 10 (10% cytotoxicity)
[2] = with S9 rat liver extract, concentration 25 (25% cytotoxicity)
[3] = with S9 rat liver extract, concentration 50 (50% cytotoxicity)
[4] = without S9 rat liver extract, concentration 10 (10% cytotoxicity)
[5] = without S9 rat liver extract, concentration 25 (25% cytotoxicity)

Row | Structure (SMILES) | Genotoxicity test, With S9 rat liver extract, Bscl 2, 10 (Bscl2-GFP) [fold] | Genotoxicity test, Without S9 rat liver extract, Bscl 2, 10 (Bscl2-GFP) [fold] | Genotoxicity test, With S9 rat liver extract, Bscl 2, 25 (Bscl2-GFP) [fold] | Genotoxicity test, Without S9 rat liver extract, Bscl 2, 25 (Bscl2-GFP) [fold] | Genotoxicity test, With S9 rat liver extract, Bscl 2, 50 (Bscl2-GFP) [fold] | Genotoxicity test, Without S9 rat liver extract, Bscl 2, 50 (Bscl2-GFP) [fold] | Genotoxicity test, With S9 rat liver extract, Rtkn, 10 (Rtkn-GFP) [fold] | Genotoxicity test, Without S9 rat liver extract, Rtkn, 10 (Rtkn-GFP) [fold] | Genotoxicity test, With S9 rat liver extract, Rtkn, 25 (Rtkn-GFP) [fold] | Genotoxicity test, Without S9 rat liver extract, Rtkn, 25 (Rtkn-GFP) [fold] | Genotoxicity test, With S9 rat liver extract, Rtkn, 50 (Rtkn-GFP) [fold] | Genotoxicity test, Without S9 rat liver extract, Rtkn, 50 (Rtkn-GFP) [fold] | further results
1 | Cc1ccccc1OCC(CN1CC1C)OC(=O)NCCCCCCn1c(=O)n(CCCCCCNC(=O)OC(COc2ccccc2C)CN2CC2C)c(=O)n(CCCCCCNC(=O)OC(COc2ccccc2C)CN2CC2C)c1=O (stereo not drawn) [Ex. 21] | 1.0 | 1.1 | 1.3 | 1.2 | 1.4 | 1.6 | 1.2 | 1.2 | 1.4 | 1.3 | 1.5 | 1.5 | 
2 | CCCCOCC(CN1CC1(C)C)OC(=O)NCCCCCCn1c(=O)n(CCCCCCNC(=O)OC(COCCCC)CN2CC2(C)C)c(=O)n(CCCCCCNC(=O)OC(COCCCC)CN2CC2(C)C)c1=O (stereo not drawn) [Ex. 31] |  |  |  |  |  |  |  |  |  |  |  |  | Genotoxicity test, Bscl 2 induction level (Bscl2-GFP; [1]): 1.1; Genotoxicity test, Bscl 2 induction level (Bscl2-GFP; [2]): 1.1; Genotoxicity test, Bscl 2 induction level (Bscl2-GFP; [3]): 1.1; Genotoxicity test, Bscl 2 induction level (Bscl2-GFP; [4]): 1.2; Genotoxicity test, Bscl 2 induction level (Bscl2-GFP; [5]): 1.2; Genotoxicity test, Rtkn induction level (Rtkn-GFP; [1]): 1.2; Genotoxicity test, Rtkn induction level (Rtkn-GFP; [2]): 1.2; Genotoxicity test, Rtkn induction level (Rtkn-GFP; [3]): 1.3; Genotoxicity test, Rtkn induction level (Rtkn-GFP; [4]): 1.2; Genotoxicity test, Rtkn induction level (Rtkn-GFP; [5]): 1.2
3 | CC(CN1CC1C)OC(=O)NCC1(C)CC(NC(=O)OC(C)CN2CC2C)CC(C)(C)C1 (stereo not drawn) [Comp. Ex. 7, reference compound] | 1.2 | 1.2 | 1.6 | 1.6 | 1.7 | 2.4 | 1.6 | 1.6 | 2.7 | 2.5 | 3.5 | 3.8 | 
4 | CCCCOCC(CN1CC1C)OC(=O)NCCCCCCn1c(=O)n(CCCCCCNC(=O)OC(COCCCC)CN2CC2C)c(=O)n(CCCCCCNC(=O)OC(COCCCC)CN2CC2C)c1=O (stereo not drawn) [Ex. 14] | 1.0 | 1.1 | 1.0 | 1.1 |  | 1.1 | 0.9 | 0.8 | 0.8 | 0.8 | 0.6 | 0.6 | 
5 | CCCCOCC(CN1CC1C)OC(=O)NC1CCC(CC2CCC(NC(=O)OC(COCCCC)CN3CC3C)CC2)CC1 (stereo not drawn) [Ex. 12] | 1.1 | 1.0 | 1.0 | 1.0 | 1.0 | 1.0 | 1.0 | 1.0 | 1.0 | 1.0 | 1.1 | 1.0 | 
